Experimental data published in US20050267067A1, “Radical reaction inhibitors, method for inhibition of radical reactions, and use thereof” (priority 2002, published 2005).

Legend:
[1] = Inhibition of hydroxy radical formation (H2O2/iron sulfate, DMPO spin trap, ESR); details: for Amount of formed hydroxy radical: ESR peak ratio to Mn2+ standard, relative value; for Hydroxy radical formation (%): versus system with no saccharide
Protocol: Each of the resulting mixtures was mixed to initiate reaction, injected into a cell for measuring electron spin resonance spectrum (ESR), set to a detector, and measured for formation level of hydroxy radical at a prescribed period of time after initiating reaction. […] For measurement of ESR, “Free Radical Monitor JES-FR30” was used, and the formation level of hydroxy radical was determined by calculating a ratio of a peak level detected first after initiating the measurement among the characteristic signal peaks characteristic of 5,5-dimethyl-1-pyrroline-oxide-OH (hydroxy radical), used as a spin trapping agent, and a peak level of Mn^2+ of an external standard installed in the apparatus of “JES-FR30”, and expressed as relative values in Table 1.

[2] = Oxidation of rat small intestinal mucosal enzyme solution by AAPH (conjugated diene, TBARS); format: biochemical
Protocol: As a model system for examining the influence of cyclotetrasaccharide on small intestinal mucous disorders, there was provided a system for examining the influence of cyclotetrasaccharide on the oxidation of a rat small intestinal mucosal enzyme solution by 2,2-azo-bis(2-amidinopropane)-dihydrochloric acid (AAPH).
To two grams of a rat small intestinal mucosal acetone powder, commercialized by Sigma Chemical Company, St. Louis, Mo., USA, was added 20 ml of 50 mM PBS (pH 7.2) and homogenized in ice bath. The mixture was centrifuged at 10,000 rpm for 10 min to obtain a supernatant for use as a rat small intestinal mucosal enzyme solution containing 10 mg/ml of proteins. A half milliliter of the rat small intestinal mucosal enzyme solution, 0.5 ml of a 100 mM AAPH solution, and 0.5 ml of a 200 mM of the crystalline cyclotetrasaccharide pentahydrate prepared in Experiment 1-1 were mixed, followed by incubation at 37° C. for […]. During the incubation, the mixture was sampled at two and six hours after initiating the incubation for quantifying the formed conjugated diene, while the specimens sampled at six hours after initiating the incubation were quantified for the formed TBARS.

maltase = test: Maltase activity of rat small intestinal mucosal enzyme solution after AAPH oxidation; format: biochemical
Protocol: One milliliter of the above rat small intestinal mucosal enzyme solution, one milliliter of a 100 mM AAPH solution, one milliliter of a 50 mM phosphate buffer (pH 7.2), and one milliliter of a 400 mM of the crystalline cyclotetrasaccharide pentahydrate prepared in Experiment 1-1 were mixed, incubated at 37° C. for two hours, and measured for the activities of sucrase and maltase. […] To a half milliliter of a maltose solution, which had been prepared by dissolving maltose in 50 mM sodium maleate (pH 6.6) to give a concentration of one percent (%), 0.05 ml of a AAPH-rat small intestinal mucosal enzyme solution. After incubated at 37° C. for 30 min, the mixture was quantified for free glucose by the GOD method. One unit (U) activity of maltase was defined as an enzyme amount that releases two micromoles of glucose per minutes from maltose at 37° C.

[3] = Preservation of vitamin D3 tablets at 60° C., absorbance at 265 nm; format: physicochemical; details: after preserving for 14 days

OCC1OC2OCC3O[C@H](O[C@H]4C(O)C(CO)OC(OCC5O[C@H](O[C@@H](C1O)C2O)C(O)C(O)[C@@H]5O)C4O)C(O)C(O)[C@@H]3O (stereo partly drawn) [Cyclotetrasaccharide, cyclo{→6}-α-D-glucopyranosyl-(1→3)-α-D-glucopyranosyl-(1→6)-α-D-glucopyranosyl-(1→3)-α-D-glucopyranosyl-(1→}]
Amount of formed hydroxy radical ([1]; 15 mM saccharide): 1.009
Hydroxy radical formation (%) ([1]; 15 mM saccharide): (34) %
Hydroxy radical formation (%) ([1]; 15 mM saccharide, listed as cyclotetrasaccharide): about 34%
Amount of formed hydroxy radical ([1]; 38 mM saccharide): 0.265
Hydroxy radical formation (%) ([1]; 38 mM saccharide): (9) %
Hydroxy radical formation (%) ([1]; 38 mM saccharide, listed as cyclotetrasaccharide): about 9%
Amount of formed hydroxy radical ([1]; 75 mM saccharide): 0.228
Hydroxy radical formation (%) ([1]; 75 mM saccharide): (8) %
Amount of formed hydroxy radical ([1]; 150 mM saccharide): 0.125
Hydroxy radical formation (%) ([1]; 150 mM saccharide): (4) %
Formed conjugated diene ([2]; reaction time 0 hr, AAPH, 37° C.): 0.00 μg/mg-protein
Formed conjugated diene ([2]; reaction time 2 hr, AAPH, 37° C.): 2.46 μg/mg-protein
Conjugated diene formation: (%) ([2]; reaction time 2 hr, versus system with no cyclotetrasaccharide): (15) %
Formed conjugated diene ([2]; reaction time 6 hr, AAPH, 37° C.): 61.84 μg/mg-protein
Conjugated diene formation: (%) ([2]; reaction time 6 hr, versus system with no cyclotetrasaccharide): (60) %
Formed TBARS ([2]; six hours after initiating the incubation, AAPH, 37° C.): 3.71 µg/mg-protein
TBARS formation (%) ([2]; six hours, versus system with no cyclotetrasaccharide): (61) %
Maltase activity (maltase; enzyme solution incubated with AAPH at 37° C. for two hours, with or without cyclotetrasaccharide): 0.0669 u/mg-protein
Maltase Relative residual activity (%) (maltase; versus system with no AAPH, 37° C., two hours): (85) %
residual vitamin D3 (%) [3]: 61%
